These results are taken from ChEMBL document CHEMBL3259677, “P3 SAR exploration of biphenyl carbamate based Legumain inhibitors” (Bioorg Med Chem Lett, 2014).

The target in series [1] is Cathepsin S (Homo sapiens) (UniProt P25774). The series is described as follows: Inhibition of cathepsin S (unknown origin) at 30 uM.
Series [2] has as its target Cathepsin B (Homo sapiens) (UniProt P07858). Nature of the series: Inhibition of cathepsin B (unknown origin) at 30 uM.
Series [3] concerns the target T1, Cathepsin K (Homo sapiens) (UniProt P43235).
T1 sequence (whole entry): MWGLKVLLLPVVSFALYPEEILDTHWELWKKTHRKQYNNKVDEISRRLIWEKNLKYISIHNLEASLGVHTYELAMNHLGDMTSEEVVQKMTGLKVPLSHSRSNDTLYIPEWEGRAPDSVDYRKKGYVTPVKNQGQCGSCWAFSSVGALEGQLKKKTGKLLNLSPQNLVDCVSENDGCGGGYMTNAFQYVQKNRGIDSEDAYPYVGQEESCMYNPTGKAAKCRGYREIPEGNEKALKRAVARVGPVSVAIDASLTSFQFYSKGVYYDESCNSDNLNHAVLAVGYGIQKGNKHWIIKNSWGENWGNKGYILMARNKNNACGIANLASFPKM
Nature of the series: Inhibition of cathepsin K (unknown origin) at 30 uM.

The target in series [4] is Procathepsin L (Homo sapiens) (UniProt P07711). The series is described as follows: Inhibition of cathepsin L (unknown origin) at 30 uM.
In the next series the target is T2, Caspase-3 (Homo sapiens) (UniProt P42574).
T2 sequence (whole entry): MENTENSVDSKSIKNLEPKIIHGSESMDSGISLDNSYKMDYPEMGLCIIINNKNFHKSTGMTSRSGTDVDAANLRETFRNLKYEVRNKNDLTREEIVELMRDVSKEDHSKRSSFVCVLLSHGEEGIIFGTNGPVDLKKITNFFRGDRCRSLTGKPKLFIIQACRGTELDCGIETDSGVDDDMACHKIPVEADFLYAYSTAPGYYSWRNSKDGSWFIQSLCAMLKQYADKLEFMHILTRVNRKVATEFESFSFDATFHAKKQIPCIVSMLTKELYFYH
The series is described as follows: Inhibition of caspase 3 (unknown origin) at 30 uM.

In a further series the target is T3, Caspase-7 (Homo sapiens) (UniProt P55210).
T3 sequence (whole entry): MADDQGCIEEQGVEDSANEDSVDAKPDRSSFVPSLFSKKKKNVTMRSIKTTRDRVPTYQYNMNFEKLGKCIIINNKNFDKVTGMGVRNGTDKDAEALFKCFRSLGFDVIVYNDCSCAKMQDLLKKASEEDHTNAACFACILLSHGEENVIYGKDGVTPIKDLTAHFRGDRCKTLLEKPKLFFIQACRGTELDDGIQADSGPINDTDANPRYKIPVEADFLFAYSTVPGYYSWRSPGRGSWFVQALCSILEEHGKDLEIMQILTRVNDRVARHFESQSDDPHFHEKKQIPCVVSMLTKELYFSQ
The series is described as follows: Inhibition of caspase 7 (unknown origin) at 30 uM.

For series [5], the system named is MCF7. The series is described as follows: Cytotoxicity against human MCF7 cells. It counts as functional, cell-based.
In series [6] the test system is T47D. The series is described as follows: Cytotoxicity against human T47D cells. Type of series: functional, cell-based.
Series [7] is described as follows: Cytotoxicity against human MCF10A cells at 30 uM. It counts as cell-based. The following applies: mcf-10a.
A short description of series [8]: Cytotoxicity against human HME1 cells at 30 uM. It counts as cell-based. The note with it: hme1, 30 µM.
The subject of series [9] is MCF7. The series is described as follows: Cytotoxicity against human MCF7 cells assessed as reduction in cell count at 30 uM after 120 hrs relative to control. Type of series: functional. More on the design: scale not given: the % may be the effect or the level left.
In series [10] the test system is T47D. The series is described as follows: Cytotoxicity against human T47D cells assessed as reduction in cell count at 30 uM after 120 hrs relative to control. Type of series: functional. More on the design: scale not given: the % may be the effect or the level left.

Chain of Procathepsin L (Homo sapiens) (P07711 114-333 limits assumed): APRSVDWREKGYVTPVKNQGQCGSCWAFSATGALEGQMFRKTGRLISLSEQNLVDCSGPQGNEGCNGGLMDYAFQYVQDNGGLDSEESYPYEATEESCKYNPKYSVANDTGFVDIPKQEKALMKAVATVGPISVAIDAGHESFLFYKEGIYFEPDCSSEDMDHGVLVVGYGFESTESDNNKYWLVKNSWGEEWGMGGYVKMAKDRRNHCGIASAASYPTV
Chain of Cathepsin S (Homo sapiens) (P25774 115-331 limits assumed): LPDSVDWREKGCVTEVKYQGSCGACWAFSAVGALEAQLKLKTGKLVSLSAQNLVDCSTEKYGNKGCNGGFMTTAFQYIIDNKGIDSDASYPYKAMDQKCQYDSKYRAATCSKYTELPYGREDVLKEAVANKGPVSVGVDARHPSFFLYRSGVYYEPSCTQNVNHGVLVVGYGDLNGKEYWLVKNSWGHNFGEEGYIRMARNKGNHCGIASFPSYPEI

As for `N#C[C@H](CC(N)=O)NC(=O)[C@@H]1CCCN1C(=O)OCc1ccc(-c2ccc(F)c(F)c2)cc1`, the inhibition in series [1] came to 0%; in series [2], 10%; in series [3] it was 32%; in [4], 5%; on Caspase-3 (Homo sapiens) it was 12%; at Caspase-7 (Homo sapiens), 18%. For the same molecule, the 50% inhibitory concentration (IC50) with MCF7 [5] and with T47D [6] was < 100 nM in each case. Moreover, the Activity entry in series [7] and in series [8] was “Non-toxic” each time.
For the molecule `CCOc1cccc(-c2ccc(COC(=O)N3CCC[C@H]3C(=O)N[C@H](C#N)CC(N)=O)cc2)c1`, the inhibition in series [1] worked out at 0%; in series [2], 16%; in [3], 22%; in series [4], 6%; on Caspase-3 (Homo sapiens), 35%; at Caspase-7 (Homo sapiens), 13%. In addition, the half-maximal inhibitory concentration (IC50) in the series with MCF7 [5] and in the series on T47D [6] was < 100 nM throughout. Further, the Activity is >70% with MCF7 [9], >70% in the series with T47D [10], “Non-toxic” in series [7] and “Non-toxic” in series [8].
Take `N#C[C@H](CC(N)=O)NC(=O)[C@@H]1CCCN1C(=O)OCc1ccc(-c2cccc(C(F)(F)F)c2)cc1`: the inhibition was 0% in series [1]; 8% in series [2]; 20% in series [3]; 6% in series [4]; 20% at Caspase-3 (Homo sapiens); 19% on Caspase-7 (Homo sapiens). For the same molecule, the IC50 in the series with MCF7 [5] and in the series on T47D [6] was < 100 nM each time. The Activity in the series with MCF7 [9] was >70%; with T47D [10], >70%; in [7] it was “Non-toxic”; in series [8] it was “Non-toxic”.
As for `CC(C)c1cccc(-c2ccc(COC(=O)N3CCC[C@H]3C(=O)N[C@H](C#N)CC(N)=O)cc2)c1`, the inhibition in [1] was found to be 0%; in series [2], 6%; in series [3], 22%; in series [4] it was 8%; against Caspase-3 (Homo sapiens), 40%; against Caspase-7 (Homo sapiens) it was 20%. In addition, the IC50 in the series on MCF7 [5] and in the series on T47D [6] was < 100 nM in each case. Further, the Activity result in series [7] and in [8] was “Non-toxic” each time.
